Experimental data: publication PMC7812667 (ACS Medicinal Chemistry Letters, 2020)

Test: LogD shake-flask, octanol and water
Format: physicochemical
Conditions: pH 7.4

- reduction in logD (versus compound 5): over 1.5 log units
SMILES: c1ccc(Cc2c[nH]c3ncc(-c4cnn(C5CCNCC5)c4)cc23)cc1 [Compound 6]
